This passage reports inhibition results from ChEMBL document CHEMBL5442219.

Common to all, as to details: Compound concentration 10 µM
Test [1] addresses T1, Alpha-2C adrenergic receptor (Homo sapiens) (UniProt P18825).
T1 sequence (whole entry): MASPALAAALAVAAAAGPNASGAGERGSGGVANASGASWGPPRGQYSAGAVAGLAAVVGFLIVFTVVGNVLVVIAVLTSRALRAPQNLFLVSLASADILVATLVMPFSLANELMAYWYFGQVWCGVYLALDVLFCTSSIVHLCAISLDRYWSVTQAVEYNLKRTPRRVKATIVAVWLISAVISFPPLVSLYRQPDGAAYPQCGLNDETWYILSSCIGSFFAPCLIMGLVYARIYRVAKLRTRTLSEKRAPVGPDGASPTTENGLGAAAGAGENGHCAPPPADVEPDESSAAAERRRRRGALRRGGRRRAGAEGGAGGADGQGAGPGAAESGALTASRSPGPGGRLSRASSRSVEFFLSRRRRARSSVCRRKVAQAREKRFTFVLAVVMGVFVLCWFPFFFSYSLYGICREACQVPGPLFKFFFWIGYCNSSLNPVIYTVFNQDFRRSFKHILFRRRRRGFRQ

The target in test [2] is Histamine H4 receptor (Homo sapiens) (UniProt Q9H3N8).
Test [3] addresses Sigma intracellular receptor 2 (Homo sapiens) (UniProt Q5BJF2).
For test [4], the target named is D(1A) dopamine receptor (Homo sapiens) (UniProt P21728).
The target in test [5] is T2, Alpha-1B adrenergic receptor (Homo sapiens) (UniProt P35368).
T2 sequence (whole entry): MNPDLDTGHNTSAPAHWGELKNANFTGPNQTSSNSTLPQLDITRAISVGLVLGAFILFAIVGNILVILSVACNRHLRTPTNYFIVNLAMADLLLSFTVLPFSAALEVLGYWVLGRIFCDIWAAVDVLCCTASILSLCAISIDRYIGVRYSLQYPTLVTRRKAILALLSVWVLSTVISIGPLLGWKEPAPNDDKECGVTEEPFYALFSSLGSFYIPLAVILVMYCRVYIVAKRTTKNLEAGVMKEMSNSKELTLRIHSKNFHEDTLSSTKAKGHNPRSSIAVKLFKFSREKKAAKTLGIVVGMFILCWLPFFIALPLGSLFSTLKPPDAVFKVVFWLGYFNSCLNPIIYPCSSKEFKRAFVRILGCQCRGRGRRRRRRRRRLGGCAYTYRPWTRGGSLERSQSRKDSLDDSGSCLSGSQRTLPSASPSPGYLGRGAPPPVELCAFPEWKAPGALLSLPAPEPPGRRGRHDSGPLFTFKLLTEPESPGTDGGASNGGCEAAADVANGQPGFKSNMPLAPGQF

Test [6] has as its target Muscarinic acetylcholine receptor M3 (Homo sapiens) (UniProt P20309).
Test [7] has as its target Beta-3 adrenergic receptor (Homo sapiens) (UniProt P13945).
In test [8] the target is D(2) dopamine receptor (Homo sapiens) (UniProt P14416).
Test [9] concerns the target T3, 5-hydroxytryptamine receptor 3A (Homo sapiens) (UniProt P46098).
T3 sequence (whole entry): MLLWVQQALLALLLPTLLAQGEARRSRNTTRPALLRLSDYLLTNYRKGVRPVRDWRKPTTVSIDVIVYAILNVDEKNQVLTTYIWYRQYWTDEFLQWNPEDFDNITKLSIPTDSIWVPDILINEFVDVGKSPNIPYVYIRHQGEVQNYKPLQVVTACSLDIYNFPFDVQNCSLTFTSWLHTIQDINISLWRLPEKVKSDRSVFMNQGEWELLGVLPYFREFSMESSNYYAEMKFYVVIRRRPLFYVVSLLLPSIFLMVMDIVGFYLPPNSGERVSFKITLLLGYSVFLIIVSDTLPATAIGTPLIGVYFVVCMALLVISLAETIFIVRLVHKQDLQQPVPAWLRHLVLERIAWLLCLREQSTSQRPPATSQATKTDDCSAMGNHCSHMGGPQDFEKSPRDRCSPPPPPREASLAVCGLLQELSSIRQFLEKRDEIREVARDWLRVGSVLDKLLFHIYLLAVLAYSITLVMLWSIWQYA

For test [10], the target named is Translocator protein (Homo sapiens) (UniProt P30536).
The target in test [11] is T4, Alpha-2B adrenergic receptor (Homo sapiens) (UniProt P18089).
T4 sequence (whole entry): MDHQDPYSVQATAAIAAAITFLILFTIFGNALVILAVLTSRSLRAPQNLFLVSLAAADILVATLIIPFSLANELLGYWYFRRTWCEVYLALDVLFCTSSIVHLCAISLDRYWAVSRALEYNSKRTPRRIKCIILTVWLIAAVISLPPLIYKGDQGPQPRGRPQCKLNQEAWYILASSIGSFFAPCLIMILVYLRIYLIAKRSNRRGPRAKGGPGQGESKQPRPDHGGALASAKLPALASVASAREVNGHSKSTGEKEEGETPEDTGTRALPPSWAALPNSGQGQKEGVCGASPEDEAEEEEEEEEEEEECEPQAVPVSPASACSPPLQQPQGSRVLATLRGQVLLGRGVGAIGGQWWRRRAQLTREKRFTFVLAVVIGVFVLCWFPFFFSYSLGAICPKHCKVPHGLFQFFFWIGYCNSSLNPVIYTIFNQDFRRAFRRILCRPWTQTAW

The target in test [12] is Sodium-dependent noradrenaline transporter (Homo sapiens) (UniProt P23975).
In test [13] the target is T5, D(4) dopamine receptor (Homo sapiens) (UniProt P21917).
T5 sequence (whole entry): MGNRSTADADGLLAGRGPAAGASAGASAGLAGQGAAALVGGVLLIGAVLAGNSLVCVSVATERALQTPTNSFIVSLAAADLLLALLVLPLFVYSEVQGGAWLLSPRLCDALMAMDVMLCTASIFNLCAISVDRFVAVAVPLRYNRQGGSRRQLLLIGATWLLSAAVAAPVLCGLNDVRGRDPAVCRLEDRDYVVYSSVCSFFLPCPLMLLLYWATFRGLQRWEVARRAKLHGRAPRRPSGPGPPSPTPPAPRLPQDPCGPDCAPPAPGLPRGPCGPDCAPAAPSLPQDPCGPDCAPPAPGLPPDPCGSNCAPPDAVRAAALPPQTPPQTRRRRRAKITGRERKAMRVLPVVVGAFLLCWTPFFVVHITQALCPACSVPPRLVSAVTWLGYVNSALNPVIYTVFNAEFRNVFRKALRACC

Chain of Muscarinic acetylcholine receptor M3 (Homo sapiens) (P20309 whole entry, looked up): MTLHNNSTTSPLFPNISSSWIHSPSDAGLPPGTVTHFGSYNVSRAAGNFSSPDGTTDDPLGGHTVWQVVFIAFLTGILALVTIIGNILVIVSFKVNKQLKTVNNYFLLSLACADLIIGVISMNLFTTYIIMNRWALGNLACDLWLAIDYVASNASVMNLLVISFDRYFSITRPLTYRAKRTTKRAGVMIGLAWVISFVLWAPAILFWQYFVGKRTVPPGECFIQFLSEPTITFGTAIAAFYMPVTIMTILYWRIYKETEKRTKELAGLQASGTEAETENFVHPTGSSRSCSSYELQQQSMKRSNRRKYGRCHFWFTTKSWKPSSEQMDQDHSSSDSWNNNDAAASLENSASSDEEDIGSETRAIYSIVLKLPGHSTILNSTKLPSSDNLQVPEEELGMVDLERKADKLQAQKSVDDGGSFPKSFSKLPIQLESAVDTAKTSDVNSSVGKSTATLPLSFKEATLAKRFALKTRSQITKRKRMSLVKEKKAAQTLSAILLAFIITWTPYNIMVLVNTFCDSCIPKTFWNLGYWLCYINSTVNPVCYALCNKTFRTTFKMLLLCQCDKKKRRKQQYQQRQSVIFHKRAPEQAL
Chain of Sigma intracellular receptor 2 (Homo sapiens) (Q5BJF2 whole entry): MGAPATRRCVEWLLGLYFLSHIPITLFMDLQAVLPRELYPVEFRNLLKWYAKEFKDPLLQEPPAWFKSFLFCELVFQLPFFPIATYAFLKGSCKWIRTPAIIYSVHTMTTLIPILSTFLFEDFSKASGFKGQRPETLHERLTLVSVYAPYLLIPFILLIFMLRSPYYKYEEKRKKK
Chain of Translocator protein (Homo sapiens) (P30536 whole entry): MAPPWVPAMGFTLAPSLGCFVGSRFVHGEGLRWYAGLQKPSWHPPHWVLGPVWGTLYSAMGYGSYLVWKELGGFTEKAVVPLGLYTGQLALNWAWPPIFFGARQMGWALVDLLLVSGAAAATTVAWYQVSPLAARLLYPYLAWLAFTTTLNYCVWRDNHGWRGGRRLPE
Chain of D(1A) dopamine receptor (Homo sapiens) (P21728 whole entry): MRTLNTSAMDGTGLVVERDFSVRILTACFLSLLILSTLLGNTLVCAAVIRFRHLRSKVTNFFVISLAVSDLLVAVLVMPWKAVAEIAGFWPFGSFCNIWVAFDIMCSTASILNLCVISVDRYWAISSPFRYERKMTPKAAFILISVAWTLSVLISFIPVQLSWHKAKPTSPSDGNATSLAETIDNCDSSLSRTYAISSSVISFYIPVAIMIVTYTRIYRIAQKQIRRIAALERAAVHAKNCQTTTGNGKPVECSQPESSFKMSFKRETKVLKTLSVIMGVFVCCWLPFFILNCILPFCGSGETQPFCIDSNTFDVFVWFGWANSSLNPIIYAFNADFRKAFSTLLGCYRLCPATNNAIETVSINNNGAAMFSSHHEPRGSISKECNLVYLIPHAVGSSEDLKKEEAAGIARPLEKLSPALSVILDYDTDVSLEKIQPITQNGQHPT
Chain of D(2) dopamine receptor (Homo sapiens) (P14416 whole entry): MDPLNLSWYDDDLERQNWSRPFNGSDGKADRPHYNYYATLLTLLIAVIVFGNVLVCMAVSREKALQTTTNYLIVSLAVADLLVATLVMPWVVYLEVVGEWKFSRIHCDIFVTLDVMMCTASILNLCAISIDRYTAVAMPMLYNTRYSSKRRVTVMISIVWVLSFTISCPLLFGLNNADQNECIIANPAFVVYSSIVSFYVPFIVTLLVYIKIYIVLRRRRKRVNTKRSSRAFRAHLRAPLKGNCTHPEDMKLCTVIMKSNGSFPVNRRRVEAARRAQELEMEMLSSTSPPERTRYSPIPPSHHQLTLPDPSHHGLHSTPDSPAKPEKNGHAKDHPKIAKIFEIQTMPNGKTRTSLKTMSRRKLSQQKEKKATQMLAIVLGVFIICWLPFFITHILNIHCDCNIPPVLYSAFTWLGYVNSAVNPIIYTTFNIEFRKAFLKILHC
Chain of Sodium-dependent noradrenaline transporter (Homo sapiens) (P23975 whole entry): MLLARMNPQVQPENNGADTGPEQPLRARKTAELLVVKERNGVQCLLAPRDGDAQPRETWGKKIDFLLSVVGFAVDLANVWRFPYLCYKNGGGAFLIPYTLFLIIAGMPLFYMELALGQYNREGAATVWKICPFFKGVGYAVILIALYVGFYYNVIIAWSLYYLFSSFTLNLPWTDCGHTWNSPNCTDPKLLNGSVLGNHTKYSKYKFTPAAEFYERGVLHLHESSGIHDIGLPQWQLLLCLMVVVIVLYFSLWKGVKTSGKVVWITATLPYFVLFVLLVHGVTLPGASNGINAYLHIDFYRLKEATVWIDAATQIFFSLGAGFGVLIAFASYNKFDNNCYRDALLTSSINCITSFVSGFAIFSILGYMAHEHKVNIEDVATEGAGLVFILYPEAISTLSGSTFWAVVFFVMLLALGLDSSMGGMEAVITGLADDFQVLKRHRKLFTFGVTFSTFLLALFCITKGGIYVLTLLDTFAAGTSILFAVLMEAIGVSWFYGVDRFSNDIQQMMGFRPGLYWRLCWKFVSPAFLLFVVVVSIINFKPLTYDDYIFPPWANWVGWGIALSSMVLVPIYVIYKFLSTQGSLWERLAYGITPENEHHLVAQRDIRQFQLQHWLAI
Chain of Beta-3 adrenergic receptor (Homo sapiens) (P13945 whole entry, looked up): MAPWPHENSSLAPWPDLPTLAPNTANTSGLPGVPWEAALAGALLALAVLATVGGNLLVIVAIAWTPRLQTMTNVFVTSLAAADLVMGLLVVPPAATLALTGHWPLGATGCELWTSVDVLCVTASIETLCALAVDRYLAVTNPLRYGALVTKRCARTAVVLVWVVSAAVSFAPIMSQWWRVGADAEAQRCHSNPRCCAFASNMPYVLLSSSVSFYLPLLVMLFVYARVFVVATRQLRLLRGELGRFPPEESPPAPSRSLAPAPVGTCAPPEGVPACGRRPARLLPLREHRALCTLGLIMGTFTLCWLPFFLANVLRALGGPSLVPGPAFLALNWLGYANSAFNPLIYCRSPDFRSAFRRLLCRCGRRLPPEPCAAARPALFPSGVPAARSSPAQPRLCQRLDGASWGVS
Chain of Histamine H4 receptor (Homo sapiens) (Q9H3N8 whole entry): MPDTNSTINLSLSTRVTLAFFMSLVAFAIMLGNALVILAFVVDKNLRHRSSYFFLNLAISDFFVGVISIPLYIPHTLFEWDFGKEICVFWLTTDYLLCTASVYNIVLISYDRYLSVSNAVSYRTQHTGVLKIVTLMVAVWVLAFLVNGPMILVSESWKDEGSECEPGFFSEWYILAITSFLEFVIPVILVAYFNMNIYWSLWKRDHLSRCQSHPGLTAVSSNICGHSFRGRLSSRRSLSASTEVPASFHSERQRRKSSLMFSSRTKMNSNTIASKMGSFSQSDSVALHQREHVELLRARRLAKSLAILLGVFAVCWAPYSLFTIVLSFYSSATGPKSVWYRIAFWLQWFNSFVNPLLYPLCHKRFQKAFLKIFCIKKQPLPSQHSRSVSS

As a reminder, the inhibition is the change of the read-out against control, counted positive when it falls. `CCCCCNC(=O)NS(=O)(=O)c1cc([N+](=O)[O-])ccc1NC1CCCCC1`: the inhibition in test [1] was -0.86%; in test [2] it was 16.9%; in [3], 3.25%; in test [4], -2.52%; in [5], 13.4%; in [6], 16.6%. Also, the inhibition in [7] was 39.7%; in test [8] it was 7.7%; in [9] it was -7.62%; in test [10], 34.5%; in test [11], -2.94%; in test [12], 83.9%.
On to `COc1ccc(OC(F)(F)F)cc1CN[C@H]1CCCN[C@H]1c1ccccc1`, for which the inhibition in test [1] was 9.77%; in test [2], 1.14%; in test [3] it was 90.5%; in [4] it was 4.84%; in test [5], 2.37%; in [6] it was -8.99%. The inhibition was 6.31% in test [7]; 16.6% in test [8]; -2.15% in test [13]; 13.1% in test [9]; 17.5% in [10]; 0.54% in test [11]. In [12], the inhibition is 22.6%.
Consider `CCOC(=O)c1c(C)[nH]c2ccc3c(c12)CN1CCc2cc(OC)ccc2C1O3` (stereo unspecified), for which the inhibition is 95% in test [1]; 29.1% in test [2]; 36.3% in test [3]; 1.81% in test [4]; 27.5% in [5]; 69.2% in test [6]. Moreover, the inhibition in test [7] is 6.3%; in [8], 4.19%; in test [13] it was -5.53%; in test [9], 75.4%; in [10], 28.3%; in test [11], 60%. In addition, in test [12], the inhibition is 51%.
Take `COc1cc(-n2cnc3cc(-c4ccc(Cl)cc4)sc3c2=O)ccc1OCCN1CCCC1`: the inhibition was 71.9% in test [1]; 58.1% in test [2]; 94.7% in test [3]; 11.7% in [4]; 27.2% in test [5]; 56.6% in test [6]. Moreover, the inhibition in test [7] is 43.7%; in test [8], 30.2%; in [13], 32.4%; in [9] it was 22.5%; in test [10] it was 11.9%; in [11], 47.6%. The inhibition in test [12] is 80.4%.
`C[C@@H](NCCCc1cccc(C(F)(F)F)c1)c1cccc2ccccc12`: the inhibition was 77.9% in [1]; 14% in test [2]; 95.5% in test [3]; 8.33% in test [4]; 53.8% in [5]; 25.8% in test [6]. The inhibition in test [7] is 48%; in test [8], 25.8%; in test [13], 48%; in test [9], 15.4%; in test [10], 13.5%; in [11], 39.4%. Besides, the inhibition in test [12] was 60.8%.
For the compound `COc1ccc(Br)cc1S(=O)(=O)NC(=O)/C=C/c1ccccc1Cc1ccc2ccccc2c1`, the inhibition was 18.6% in [1]; -5.64% in [2]; 5.53% in test [3]; -4.59% in [4]; -0.54% in test [5]; 12.9% in test [6]. For the same compound, the inhibition was 33.2% in test [7]; 29.3% in test [8]; 33.8% in [13]; 3.03% in test [9]; 17.7% in test [10]; -4.1% in test [11]. Also, in test [12], the inhibition is -0.94%.
As to `COc1cccc([C@@H](C)NCCCc2ccccc2Cl)c1`, the inhibition in test [1] is 79.9%; in [2], 0%; in [3] it was 96.3%; in [4], 12.6%; in [5], 15.5%; in test [6], 0.89%. The inhibition in [7] is 50.2%; in test [8], 43.9%; in test [13] it was 32.2%; in [9], -2.74%; in test [10], 9.42%; in test [11], 72.4%. The inhibition in [12] is 64.6%.
As to `C[C@H](Cc1cc2c(c(C(N)=O)c1)N(CCCO)CC2)NCCOc1ccccc1OCC(F)(F)F`, the inhibition in test [1] was 82.5%; in test [2] it was -6.83%; in test [3], 17.6%; in test [4], -5.84%; in test [5], 81.6%; in [6], -2.64%. Besides, the inhibition in test [7] was 11%; in test [8], 55.5%; in test [13] it was 63.3%; in test [9], 1.73%; in test [10] it was 2.96%; in [11], 69.7%. The inhibition in test [12] was -2.22%.
Take `COc1ccc(NS(=O)(=O)c2sc3ccc(Cl)cc3c2C)cc1N1CCNCC1`: the inhibition in [1] was 35.2%; in test [2], 18.2%; in test [3], 81.8%; in test [4], 16.9%; in [5], 65.1%; in test [6], 3.19%. Further, the inhibition in test [7] was 56.5%; in [8], 37.4%; in test [13], 0.64%; in test [9], 73.3%; in test [10], 39.5%; in [11], 35.1%. Besides, the inhibition in [12] was 61.7%.
